In patent publication US10058550B2, “Methods of treating heart failure” (priority 2015, dated 2018):

Target: human APJ receptor (Homo sapiens (Human), UniProt P35414)
Test: biochemical
Format: biochemical
Conditions: read-out: Activity hAPJ SPA EC50 IP
Method in brief: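 Agonist-stimulated [35S]GTPγS (0.2 nM) binding was read by SPA after 90 min at room temperature. Buffer: 20 mM HEPES pH 7.5 with 5 mM MgCl2, 200 mM NaCl, 3 μM GDP, 0.1% BSA; membranes were from a stable human APJ CHO line. EC50 values are averages of independent runs, fitted by non-linear regression.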

Sequence of human APJ receptor (P35414 whole entry): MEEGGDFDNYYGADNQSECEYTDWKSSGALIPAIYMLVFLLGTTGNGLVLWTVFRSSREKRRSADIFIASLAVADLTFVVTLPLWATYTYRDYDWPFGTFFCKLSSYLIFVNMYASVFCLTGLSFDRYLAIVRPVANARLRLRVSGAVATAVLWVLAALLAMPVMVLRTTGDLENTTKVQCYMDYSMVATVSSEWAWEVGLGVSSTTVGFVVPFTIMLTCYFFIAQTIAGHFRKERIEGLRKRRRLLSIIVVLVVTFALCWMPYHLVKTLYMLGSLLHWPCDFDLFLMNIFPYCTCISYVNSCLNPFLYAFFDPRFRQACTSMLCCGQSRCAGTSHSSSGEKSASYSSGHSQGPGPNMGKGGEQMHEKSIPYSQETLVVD

SMILES	EC50 [nM]
CCNC(=O)c1cccc(-c2nnc(NS(=O)(=O)[C@@H](C)Cc3ncc(F)cn3)n2-c2c(OC)cccc2OC)n1 [Example 229.0, 6-(4-(2,6-dimethoxyphenyl)-5-((((1S)-2-(5-fluoro-2-pyrimidinyl)-1-methylethyl)sulfonyl)amino)-4H-1,2,4-triazol-3-yl)-N-ethyl-2-pyridinecarboxamide, 6-(4-(2,6-dimethoxyphenyl)-5-((((1R)-2-(5-fluoro-2-pyrimidinyl)-1-methylethyl)sulfonyl)amino)-4H-1,2,4-triazol-3-yl)-N-ethyl-2-pyridinecarboxamide]	6.3
COc1cccc(OC)c1-n1c(NS(=O)(=O)[C@@H](C)[C@H](OC)c2ncccn2)nnc1-c1cncc(C)c1 [Example 250.0, (1R,2S)-N-(4-(2,6-dimethoxyphenyl)-5-(5-methyl-3-pyridinyl)-4H-1,2,4-triazol-3-yl)-1-methoxy-1-(2-pyrimidinyl)-2-propanesulfonamide]	2.8
COc1cccc(-c2nnc(NS(=O)(=O)[C@@H](C)[C@H](C)c3ncc(C)cn3)n2-c2c(OC)cccc2OC)n1 [Example 313.0, (2S,3R)—N-(4-(2,6-dimethoxyphenyl)-5-(6-methoxy-2-pyridinyl)-4H-1,2,4-triazol-3-yl)-3-(5-methyl-2-pyrimidinyl)-2-butanesulfonamide]	0.3
COc1cccc(-c2nnc(NS(=O)(=O)[C@H](C)[C@@H](C)c3ncc(C)cn3)n2-c2c(OC)cccc2OC)n1 [Example 314.0, (2R,3S)—N-(4-(2,6-dimethoxyphenyl)-5-(6-methoxy-2-pyridinyl)-4H-1,2,4-triazol-3-yl)-3-(5-methyl-2-pyrimidinyl)-2-butanesulfonamide]	3.4
COc1cccc(OC)c1-n1c(NS(=O)(=O)CCc2ccc(Cl)cc2)nnc1-c1ccccn1 [Example 368.0, 2-(4-chlorophenyl)-N-(4-(2,6-dimethoxyphenyl)-5-(2-pyridinyl)-4H-1,2,4-triazol-3-yl)ethanesulfonamide]	59
COc1cccc(OC)c1-n1c(NS(=O)(=O)CCc2ccc(Cl)cc2)nnc1-c1cccnc1 [Example 369.0, 2-(4-chlorophenyl)-N-(4-(2,6-dimethoxyphenyl)-5-(3-pyridinyl)-4H-1,2,4-triazol-3-yl)ethanesulfonamide]	16
COc1cccc(OC)c1-n1c(NS(=O)(=O)N[C@@H](C)c2ncc(F)cn2)nnc1-c1cncc(C)c1 [Example 392.0]	48
CCO[C@H](c1ncc(Cl)cn1)[C@H](C)S(=O)(=O)Nc1nnc(-c2cncc(C)c2)n1-c1c(OC)cccc1OC [Example 429.0, (1R,2S)-1-(5-chloropyrimidin-2-yl)-N-(4-(2,6-dimethoxyphenyl)-5-(5-methylpyridin-3-yl)-4H-1,2,4-triazol-3-yl)-1-ethoxypropane-2-sulfonamide]	0.27
COc1cccc(OC)c1-n1c(NS(=O)(=O)[C@@H](C)[C@H](C)c2ncc(F)cn2)nnc1-c1cccc(C)n1 [Example 453.0, (2S,3R)—N-(4-(2,6-dimethoxyphenyl)-5-(6-methyl-2-pyridinyl)-4H-1,2,4-triazol-3-yl)-3-(5-fluoro-2-pyrimidinyl)-2-butanesulfonamide]	0.6
COc1cccc(OC)c1-n1c(NS(=O)(=O)[C@@H](C)[C@H](C)c2ncc(F)cn2)nnc1-c1cccc(Cl)n1 [Example 454.0, (2S,3R)—N-(5-(6-chloro-2-pyridinyl)-4-(2,6-dimethoxyphenyl)-4H-1,2,4-triazol-3-yl)-3-(5-fluoro-2-pyrimidinyl)-2-butanesulfonamide]	0.84
COc1cccc(OC)c1-n1c(NS(=O)(=O)[C@@H](C)[C@H](C)c2ncc(F)cn2)nnc1-c1cccc(-c2ccccc2)n1 [Example 455.0, (2S,3R)—N-(4-(2,6-dimethoxyphenyl)-5-(6-phenyl-2-pyridinyl)-4H-1,2,4-triazol-3-yl)-3-(5-fluoro-2-pyrimidinyl)-2-butanesulfonamide]	4.9
COc1cccc(OC)c1-n1c(NS(=O)(=O)CCN2C(=O)N(C)CC[C@H]2C)nnc1-c1cncc(C)c1 [Example 460.0, N-(4-(2,6-dimethoxyphenyl)-5-(5-methyl-3-pyridinyl)-4H-1,2,4-triazol-3-yl)-2-((6R)-3,6-dimethyl-2-oxotetrahydro-1(2H)-pyrimidinyl)ethanesulfonamide]	9.7
COc1cccc(OC)c1-n1c(NS(=O)(=O)CCc2ccc(F)cc2C#N)nnc1-c1cccc(=O)[nH]1 [Example 461.0, 2-(2-cyano-4-fluorophenyl)-N-(4-(2,6-dimethoxyphenyl)-5-(6-oxo-1,6-dihydro-2-pyridinyl)-4H-1,2,4-triazol-3-yl)ethanesulfonamide]	670
COc1cccc(OC)c1-n1c(NS(=O)(=O)/C(C)=C(\C)c2ncc(F)cn2)nnc1-c1cncc(C)c1 [Example 504.0, (2E)-N-(4-(2,6-dimethoxyphenyl)-5-(5-methyl-3-pyridinyl)-4H-1,2,4-triazol-3-yl)-3-(5-fluoro-2-pyrimidinyl)-2-butene-2-sulfonamide]	18
COc1cccc(-c2nnc(NS(=O)(=O)/C(C)=C(\C)c3ncc(F)cn3)n2-c2c(OC)cccc2OC)n1 [Example 505.0, (2E)-N-(4-(2,6-dimethoxyphenyl)-5-(6-methoxy-2-pyridinyl)-4H-1,2,4-triazol-3-yl)-3-(5-fluoro-2-pyrimidinyl)-2-butene-2-sulfonamide]	1.9
COc1cccc(OC)c1-n1c(NS(=O)(=O)[C@H](C)[C@@H](C)c2ncc(C)cn2)nnc1-c1cccnc1 [Example 585.0, (2R,3S)—N-(4-(2,6-dimethoxyphenyl)-5-(3-pyridinyl)-4H-1,2,4-triazol-3-yl)-3-(5-methyl-2-pyrimidinyl)-2-butanesulfonamide]	25
COc1cccc(OC)c1-n1c(NS(=O)(=O)[C@@H](C)[C@H](OC)c2ncc(Cl)cn2)nnc1-c1cccnc1 [Example 591.0, (1R,2S)-1-(5-chloro-2-pyrimidinyl)-N-(4-(2,6-dimethoxyphenyl)-5-(3-pyridinyl)-4H-1,2,4-triazol-3-yl)-1-methoxy-2-propanesulfonamide]	0.21
COc1cccc(OC)c1-n1c(NS(=O)(=O)[C@H](C)[C@@H](OC)c2ncc(Cl)cn2)nnc1-c1cccnc1 [Example 592.0, (1S,2R)-1-(5-chloro-2-pyrimidinyl)-N-(4-(2,6-dimethoxyphenyl)-5-(3-pyridinyl)-4H-1,2,4-triazol-3-yl)-1-methoxy-2-propanesulfonamide]	10
CCO[C@H](c1ncc(Cl)cn1)[C@H](C)S(=O)(=O)Nc1nnc(-c2cncc(C)c2)n1-c1c(OC)cccc1OC [Example 610.0, (1R,2S)-1-(5-chloro-2-pyrimidinyl)-N-(4-(2,6-dimethoxyphenyl)-5-(5-methyl-3-pyridinyl)-4H-1,2,4-triazol-3-yl)-1-ethoxy-2-propanesulfonamide]	0.3
COc1cccc(OC)c1-n1c(NS(=O)(=O)[C@H](C)[C@@H](O)c2cnc(C)cn2)nnc1-c1cccnc1 [Example 614.0, (1S,2R)—N-(4-(2,6-dimethoxyphenyl)-5-(3-pyridinyl)-4H-1,2,4-triazol-3-yl)-1-hydroxy-1-(5-methyl-2-pyrazinyl)-2-propanesulfonamide]	1.7
COc1cccc(OC)c1-n1c(NS(=O)(=O)[C@@H](C)[C@H](O)c2cnc(C)cn2)nnc1-c1cccnc1 [Example 615.0, (1R,2S)—N-(4-(2,6-dimethoxyphenyl)-5-(3-pyridinyl)-4H-1,2,4-triazol-3-yl)-1-hydroxy-1-(5-methyl-2-pyrazinyl)-2-propanesulfonamide]	65
COc1cccc(OC)c1-n1c(NS(=O)(=O)[C@@H](C)[C@H](O)c2ncc(C)cn2)nnc1-c1cccnc1 [Example 616.0, (1R,2S)—N-(4-(2,6-dimethoxyphenyl)-5-(pyridin-3-yl)-4H-1,2,4-triazol-3-yl)-1-hydroxy-1-(5-methylpyrimidin-2-yl)propane-2-sulfonamide]	0.46
COc1cccc(OC)c1-n1c(NS(=O)(=O)CCc2ccc(F)cc2C#N)nnc1-c1cncc(C)c1 [Example 621.0, 2-(2-cyano-4-fluorophenyl)-N-(4-(2,6-dimethoxyphenyl)-5-(5-methyl-3-pyridinyl)-4H-1,2,4-triazol-3-yl)ethanesulfonamide]	0.84
COc1ncnc(OC)c1-n1c(NS(=O)(=O)[C@@H](C)[C@H](OC)c2ncc(C)cn2)nnc1-c1ccccn1 [Example 628.0, (1R,2S)-N-(4-(4,6-dimethoxy-5-pyrimidinyl)-5-(2-pyridinyl)-4H-1,2,4-triazol-3-yl)-1-methoxy-1-(5-methyl-2-pyrimidinyl)-2-propanesulfonamide]	6.5
COc1cccc(OC)c1-n1c(NS(=O)(=O)[C@@H](C)[C@H](OC)c2ncc(C)cn2)nnc1-c1ccccn1 [Example 629.0, (1R,2S)-N-(4-(2,6-dimethoxyphenyl)-5-(2-pyridinyl)-4H-1,2,4-triazol-3-yl)-1-methoxy-1-(5-methyl-2-pyrimidinyl)-2-propanesulfonamide]	1.6
COCCOc1cccc(-c2nnc(NS(=O)(=O)[C@@H](C)[C@H](C)c3ncc(F)cn3)n2-c2c(OC)cccc2OC)n1 [Example 638.0, (2S,3R)-N-(4-(2,6-dimethoxyphenyl)-5-(6-(2-methoxyethoxy)pyridin-2-yl)-4H-1,2,4-triazol-3-yl)-3-(5-fluoropyrimidin-2-yl)butane-2-sulfonamide]	0.65
CNc1cccc(-c2nnc(NS(=O)(=O)[C@@H](C)[C@H](C)c3ncc(F)cn3)n2-c2c(OC)cccc2OC)n1 [Example 641.0, (2S,3R)-N-(4-(2,6-dimethoxyphenyl)-5-(6-(methylamino)pyridin-2-yl)-4H-1,2,4-triazol-3-yl)-3-(5-fluoropyrimidin-2-yl)butane-2-sulfonamide]	0.14
